Assay results: patent US11564947B2, “Methods and compositions for cellular immunotherapy” (eFFECTOR Therapeutics, Inc., priority 2017, dated 2023)

What was measured:
CD8+ T cells [1] = experiment: T cell memory formation, OVA MHC class I epitope peptide (SIINFEKL) stimulation of OT-I splenocytes; assay type: cell-based, mouse; conditions: 5 μg/ml SIINFEKL peptide plus Compound 107 0.01-10 μM, 48 hrs, peptide alone 32%
Protocol: (§1) Spleens were isolated from OT-I and processed into a single cell suspension. Red blood cells (RBCs) were lysed using RBC lysis solution. Splenocytes (2×10^6 cells/ml) were cultured in complete media (10% FBS in DMEM) and stimulated with 5 μg/ml OVA MHC class I epitope peptide (SIINFEKL, SEQ ID NO:1) in the absence or presence of 0.01 μM, 0.1 μM, 1.0 μM, 3.0 μM, or 10 μM of MNK-specific inhibitor, Compound 107, for 48 hrs. For the mixed lymphocyte reaction (MLR) assay, peritoneal macrophages were first isolated from BALB/c mice by peritoneal wash with chilled DMEM media. This lavage was plated in a 24 well plate for 2 h at 37° C. After 2 h, non-adherent cells were washed to remove non-macrophage populations. The adherent cells (primarily peritoneal macrophages) were cultured in complete media in the absence or presence of the indicated Compound 107 concentrations for 24 h. After 24 h, panned splenocytes (enriched in T cells) from C57BL/6 mice were added to the macrophage culture in the absence or presence of Compound 107 for an additional 4 days.
(§2) The cells were harvested from the MLR, washed and stained with Horizon™ FVS, anti-CD4, anti-CD8, anti-CD44 and anti-CD62L antibodies. The cells were analyzed by flow cytometry (Attune NXT, ThermoFisher) and FlowJo analysis software (FlowJo LLC, Ashland Oreg.). CD8+ and CD4+ cells populations were analyzed for expression of CD44 and CD62L. […]

CD8+ T cells [2] = experiment: T cell memory formation, mixed lymphocyte reaction (MLR) assay, CD8+ cells; assay type: cell-based, mouse
Protocol: as §1, §2

CD4+ T cells = experiment: T cell memory formation, mixed lymphocyte reaction (MLR) assay, CD4+ cells; assay type: cell-based, mouse; conditions: MLR in presence of Compound 107
Protocol: as §1, §2

[3] = tested on: OT-I memory T cells (CD45.2+CD8+CD44+) in spleen; experiment: Long-term memory/recall response after adoptive transfer of OT-I T cells; assay type: in vivo, B6.SJL mice
Protocol: Spleens were isolated from OT-I mice and CD3^+ T cells were isolated using the MojoSort Mouse CD3 T Cell Isolation Kit (Biolegend, San Diego Calif.). OT-I T cells (2×10^6 cells) were adoptively transferred into B6.SJL mice through intravenous tail vein injection. Mice were dosed orally with vehicle or 1 mg/kg Compound 107 24 hrs later and vaccinated subcutaneously with SIINFEKL peptide (SEQ ID NO:1) (50 μg/mouse). Mice were dosed with vehicle or 1 mg/kg Compound 107 for an additional six days. On day 21 post-immunization, selected groups were boosted with an additional injection of SIINFEKL peptide (SEQ ID NO:1) (50 μg/mouse). On day 24, spleens were harvested from animals and processed into a single cell suspension for flow cytometry analysis. Cells were stained with BD Horizon Fixable Viability Stain and antibodies against CD45.2, CD8, and CD44. Cells were analyzed using an Attune NXT flow cytometer and data was processed using FlowJo 10.1 software.

E.G7-OVA tumors = experiment: In vivo tumor growth inhibition; set-up: species or system athymic nude mice
Protocol: E.G7-OVA tumor cells (2×10^6) were implanted subcutaneously into athymic nude mice. On day 7 post-implant, tumors were measured (˜192 mm^3) and tumor-bearing animals were randomized into 6 groups. T cells purified from OT-I mouse spleens were cultured for 48 h in vitro with DMSO/PBS control alone, 50 μg/ml SIINFEKL peptide (SEQ ID NO:1) alone, 1 μM Compound 107, or the combination of 50 μg/ml SIINFEKL (SEQ ID NO:1) and 1 μM Compound 107. The in vitro treated OT-I T cells were adoptively transferred into animals from the appropriate groups (2×10^6 cells/mouse) by tail vein injection. Animals were dosed in vivo with vehicle or 1 mg/kg Compound 107 and tumor size and body weight was monitored during the course of the study.

Cc1cc(Nc2cc(N)ncn2)c(=O)n2c1C(=O)NC21CCCCC1.Cl [Compound 107]
distribution of CD8+ T cells in the TCM pool (CD44high CD62Lhigh) (CD8+ T cells [1]): 36-41%
pool of TCM CD8+ T cells (CD8+ T cells [2]; MLR in presence of Compound 107, MLR alone 15%): 20-29%
TEM pool of CD8+ T cells (CD8+ T cells [2]; MLR, 0.01-3 μM of Compound 107, MLR alone 16%): 8-11%
pool of TCM CD4+ T cells (CD4+ T cells; MLR alone 21%): 28-39%
TEM CD4+ T cell pool (CD4+ T cells; MLR alone 25%): 16-23%
percentage of OT-I memory T cells in spleen (% of total lymphocytes) ([3]; immunized and boosted with SIINFEKL, 1 mg/kg oral during immunization, day 24, vs vehicle-treated immunized/boosted group): significantly increased
population of OT-I memory T cells in spleen (% of total lymphocytes) ([3]; un-immunized animals, 1 mg/kg oral, day 24): unaffected
tumor growth inhibition (TGI) (E.G7-OVA tumors; OT-I cells pre-treated in vitro with SIINFEKL and Compound 107, animals also dosed in vivo with 1 mg/kg Compound 107, compared with the vehicle-dosed group (55%)): did not show any further increase in TGI
tumor growth inhibition (TGI) (E.G7-OVA tumors; adoptive transfer of SIINFEKL-pre-treated OT-I cells, animals dosed 1 mg/kg Compound 107 daily, 8 days post-transfer): 45%
tumor growth inhibition (TGI) (E.G7-OVA tumors; no adoptive transfer of OT-I T cells, 1 mg/kg Compound 107 daily vs vehicle, 8 days post-transfer): 16%
tumor growth inhibition (TGI) (E.G7-OVA tumors; vehicle-dosed animals, OT-I cells pre-treated in vitro with SIINFEKL and 1 μM Compound 107, 8 days post-transfer): 55%
